Reference: patent publication US20220249819A1, “MICRONEEDLES, AND METHODS FOR THE MANUFACTURE THEREOF” (UNIVERSITY COLLEGE CORK - NATIONAL UNIVERSITY OF IRELAND, …, priority 2019, published 2022)

Columns and labels:
Type in all cases: physicochemical
[1] = Glass transition temperature (Tg) of meltable drug in amorphous form by Differential Scanning calorimetry (DSC)
From the text: (§1) The meltable active pharmaceutical ingredient forms a stable amorphous form following melting and cooling; in this context, the term “stable” as applied to the amorphous form means that the thermodynamic tendency of the active pharmaceutical ingredient to crystallize over one year is resisted. […] In this context, minimal degradation means that at least 90% of the active pharmaceutical ingredient retains its therapeutic activity following melting and cooling. […] Also, analysis of ^1H and ^13C NMR confirmed the chemical structure of ITZ, with molecular formula C35H38Cl2N8O4. […] Which indicating the chemical stability of both ITZ melts (FIG. 5). Differential Scanning calorimetry (DSC) may be employed to determine the glass transition temperature (Tg) of a meltable drug in amorphous form DSC utilizes a heat flow technique and compares the amount of heat supplied to the test sample and a similarly heated “reference” to determine transition points. Tg is typically calculated by using a half-height technique in the transition region FIG. 6.

[2] = Ability to form a glassy, amorphous form following heat-melting and cooling (XRD)
Protocol: As used herein, the term “meltable drug” or “meltable active pharmaceutical ingredient” refers to an active pharmaceutical ingredient that can be heat-melted to a molten form and has the following properties: • solid at 25° C.; • ability to form a glassy, amorphous form following heat-melting and cooling; and • the amorphous form having a glass transition temperature typically greater than 25° C. Examples of meltable drugs include; antifungals (for example, Itraconazole, Clotrimazole, Ketoconazole, Fluconazole, or derivatives or variants thereof), corticosteroids (for example, Estradiol, betamethasone valerate or derivatives or variants thereof), Anti-inflammatory drugs (for example, Celecoxib, Diclofenac, Sulindac, Indomethacin), Antimicrobials and Antibiotics (for example, Cefuroxime […], Chloramphenicol or derivatives or variants thereof), Cardiovascular and Antihypertensives (Carvedilol, Nifedipine or derivatives or variants thereof), Autonomic nervous system and Psychiatrics medications (Droperidol or derivatives or variants thereof), Antilipidemic and Cholesterol medications (Probucol, Simvastatin or derivatives or variants thereof), Gastrointestinal medications (Famotidine, Omeprazole or derivatives or variants thereof), Respiratory medications, Endocrine medications, Immunomodulators, Oncology drugs, Renal medications, Neurologic medications and anti-migraine (Zolmitriptan or derivatives or variants thereof). Typically, the meltable drug forms a stable amorphous form following melting and cooling; in this context, the formation of amorphous structure is confirmed by the XRD technique. X-ray powder Diffraction (XRD) is an analytical technique primarily used for phase identification of a crystalline material, in which the crystalline structure causes a beam of incident X-rays to diffract into many specific directions. It works best for materials that are crystalline or partially crystalline (i.e., that have periodic structural order) but is also used to study non-crystalline materials FIG. 3.

[3] = Chemical stability before and after melting for microneedle fabrication (LC-MS, 1H and 13C NMR)
From the text: as §1

GLASS TRANSITION TEMP (TG ° C.) [1]	GLASSY AND AMORPHOPUS FORM [2]	chemical stability of melts (1H and 13C NMR difference versus unmelted ITZ) [3]	stability before and after melting (LC-MS fragmentation pattern) ([3]; LC-MS, ITZ vs ITZ melt)	SMILES
–	–	No difference	–	CCC(C)n1ncn(-c2ccc(N3CCN(c4ccc(OCC5COC(Cn6cncn6)(c6ccc(Cl)cc6Cl)O5)cc4)CC3)cc2)c1=O (centres unmarked) [ITZ melt1]
–	–	No difference	–	CCC(C)n1ncn(-c2ccc(N3CCN(c4ccc(OCC5COC(Cn6cncn6)(c6ccc(Cl)cc6Cl)O5)cc4)CC3)cc2)c1=O (centres unmarked) [ITZ melt2]
45 °C	YES	–	–	COc1ccc2c(c1)c(CC(=O)O)c(C)n2C(=O)c1ccc(Cl)cc1 [Indomethacin]
–	–	–	high stability	CCC(C)n1ncn(-c2ccc(N3CCN(c4ccc(OCC5COC(Cn6cncn6)(c6ccc(Cl)cc6Cl)O5)cc4)CC3)cc2)c1=O (centres unmarked) [Itraconazole]
46 °C	YES	–	–	CC(=O)N1CCN(c2ccc(OCC3COC(Cn4ccnc4)(c4ccc(Cl)cc4Cl)O3)cc2)CC1 (centres unmarked) [Ketoconazole]

Further lines, the molecule ahead of its results:

SMILES	GLASS TRANSITION TEMP (TG ° C.) [1]	GLASSY AND AMORPHOPUS FORM [2]	chemical stability of melts (1H and 13C NMR difference versus unmelted ITZ) [3]	stability before and after melting (LC-MS fragmentation pattern) ([3]; LC-MS, ITZ vs ITZ melt)
Clc1ccccc1C(c1ccccc1)(c1ccccc1)n1ccnc1 [Clotrimazole]	32 °C	YES	–	–
OC(Cn1cncn1)(Cn1cncn1)c1ccc(F)cc1F [Fluconazole]	32 °C	YES	–	–
CCCCC(=O)O[C@]1(C(=O)CO)[C@@H](C)C[C@H]2[C@@H]3CCC4=CC(=O)C=C[C@]4(C)[C@@]3(F)[C@@H](O)C[C@@]21C [Betamethazone valerate]	54 °C	YES	–	–
CC1=C(CC(=O)O)c2cc(F)ccc2/C1=C\c1ccc([S+](C)[O-])cc1 (centres unmarked) [Sulindac]	75 °C	YES	–	–
O=C(O)Cc1ccccc1Nc1c(Cl)cccc1Cl [Diclofenac]	53 °C	YES	–	–
